Results taken from paper PMC8400920, “Metabolism of Diterpenoids Derived from the Bark of Cinnamomum cassia in Human Liver Microsomes” (Pharmaceutics, 2021).
Entries after “also recorded” stand apart in the source; their conditions may differ.

Experiments:
CYPs = assay: Metabolism of AHC in HLMs with SKF-525A, a nonselective CYP inhibitor; assay type: in vitro ADME, human; details: 10 µM AHC, 1 mg/mL HLMs, NGS, 60 min, depending on SKF-525A concentration
Procedure: To investigate CYP-mediated metabolism, 10 µM AHC was mixed with 1 mg/mL pooled HLMs and 0.1 M potassium phosphate buffer (pH 7.4). Then, SKF-525A, a general inhibitor of CYPs, was added at concentrations of 0.5, 1, and 5 mM. The reactions were initiated with the addition of NGS at […] for 60 min. After 60 min, the reactions were terminated by adding 400 µL of 100% acetonitrile. The mixtures were then centrifuged at 15,700× g for 10 min. Subsequently, 550 µL of supernatant was dried in a vacuum concentrator. The residue was dissolved in 100 µL of 20% MeOH (0.1% formic acid), and 5 µL of this sample was injected into a C18 column for LC–MS/MS analysis.
To confirm the metabolism of AHC by CYP enzymes, AHC was incubated in HLMs with SKF-525A, i.e., a nonspecific CYP inhibitor (Figure S7). […] Consequently, as the metabolism of AHC was inhibited by SKF-525A treatment, the production of all metabolites was reduced in an SKF-525A concentration-dependent manner.

[1] = test system: human liver microsomes (HLMs); assay: Metabolic stability of seven diterpenoids in human liver microsomes; assay type: in vitro ADME; details: 10 µM, 0.5 mg/mL HLMs, 37 °C, 60 min
Procedure: For metabolism profiling, 10 µM of each of the seven compounds isolated from C. cassia bark was added to 0.5 mg/mL of pooled HLMs and 0.1 M potassium phosphate buffer (pH 7.4). The HLMs were then preincubated at 37 °C for 1 min. After adding NGS, the reaction mixture was incubated at 37 °C for 60 min. After the 60 min incubation period, 50 µL of the reaction mixture was transferred to a new tube, and 50 µL of 100% ACN containing 0.1% formic acid and tolbutamide (internal standard) was added to terminate the reaction. The mixture was then vortexed, followed by centrifugation at 15,700× g (13,000 rpm) for 10 min (Eppendorf AG, Hamburg, Germany). Finally, 90 µL of the supernatant was transferred to a vial and injected into a C18 column for LC–MS/MS analysis.
The metabolism screening of the seven compounds was performed using an HPLC system (Thermo Fisher Scientific, Bremen, Germany) equipped with an HPG-3200SD standard binary pump, a WPS-3000 TRS analytical autosampler, and a TCC-3000 SD column compartment. The HPLC system was coupled with an HR-MS (Q-Exactive Focus Quadrupole-Orbitrap MS; Thermo Fisher Scientific, Waltham, MA, USA) at the Mass Spectrometry Convergence Research Center. The full MS resolution and scan ranges were 70,000 and 60–900 m/z, respectively. The MS/MS resolution was 35,000. The mass spectra were obtained in negative ion electrospray mode. A heated electrospray ionization (HESI-II) probe was used as an ion generator, with nitrogen as the sheath gas at 35 aux units and auxiliary gas at 12 aux units. The mass spectrometer was operated in negative ionization mode. The other parameters were as follows: spray voltage, 3.5 kV; capillary temperature, 320 °C; S-lens radio frequency level, 50; and aux gas heater temperature, 400 °C.
The mobile phase consisted of 100% water with 0.1% formic acid (mobile phase A) and 100% ACN with 0.1% formic acid (mobile phase B). For metabolic stability, the gradient conditions were set as follows: 5% of B at 0.5–2.0 min, 5–50% of B at 2.0–4.5 min, 50% of B at 4.5–7.0 min, and 50–5% of B at 7.0–10.0 min at 40 °C with a flow rate of 0.2 mL/min. For metabolite identification, the gradient conditions were as follows: 10% of B at 0–5 min, 10–55% of B at 5–15 min, 55% of B at 15–23 min, and 55–10% of B at 23–30 min with a flow rate of 0.25 mL/min. Chromatographic separation was performed using a Kinetex C18 column (150 × 2.1 mm, 2.6 μm, XB-C18 100 Å, S/No: H19-070128; Phenomenex, Torrance, CA, USA). Data were analyzed using Xcalibur version 4.0 software (Thermo Fisher Scientific, Waltham, MA, USA).
To confirm their metabolic stability, seven diterpenoids (AHC, anhydrocinnzeylanol, cinncassiol A, cinncassiol B, cinnzeylanol, cinnzeylanone, and cinnzeylanine) derived from the bark of C. cassia were incubated with HLMs in the presence of the NGS for 60 min (Figure 1B). The metabolic stability of each compound was determined according to the ratio of the peak area at 60 min to that at 0 min. […] Therefore, we identified the metabolites of AHC produced in HLMs.

CC(=O)O[C@@H]1[C@@H](C)CC[C@]2(O)[C@]3(C)CC(=O)O[C@]12[C@@]1(O)C(C)=C(C(C)C)C[C@@]31O [AHC, anhydrocinnzeylanine]
residual amount of AHC after reaction with SKF-525A (CYPs): significantly increased | metabolic stability in HLMs (in words) ([1]; NGS): most rapid metabolization; also recorded: unique reduction in metabolic stability; also recorded: highest metabolic rate | parent remaining after metabolism in HLMs (metabolized to) ([1]; β-NADPH): 3%
